From paper PMC2999579 (Molecular imaging and biology : MIB : the official …, 2009)

Target: integrin αvβ3 (Homo sapiens, UniProt P05106+P06756)
Experiment: Competitive cell-binding assay with ^125I-echistatin on U87MG cells
Conditions: SD

CC(F)C(=O)NC[C@@H]1O[C@H](C(=O)NCCCC[C@@H]2NC(=O)[C@@H](Cc3ccccc3)NC(=O)[C@H](CC(=O)O)NC(=O)CNC(=O)[C@H](CCCNC(=N)N)NC2=O)[C@H](O)[C@H](O)[C@H]1O (stereo partly shown) [galacto-RGD, FP-SAA-c(RGDfK)]
IC50: 404 ± 38 nM
